Test results from PMC9916883, “Betaine- and L-Carnitine-Based Ionic Liquids as Solubilising and Stabilising Agents for the Formulation of Antimicrobial Eye Drops Containing Diacerein” (International Journal of Molecular Sciences, 2023).
In brackets after ≈: the same amount, converted by molar mass. Read-outs that look alike come from different tables or passages of the source.

Experiments:
S. aureus W4 = assay: Biofilm inhibition assay (crystal violet); assay type: cell-based, Staphylococcus aureus; conditions: 12.5 μg/mL
Method: (§1) After overnight growth in LB, cultures of P. aeruginosa ATCC 27853 and S. aureus W4 were diluted 1:100 in LB or in 50% tryptone soy broth (TSB, Oxoid) supplemented with 0.25% glucose (Sigma), respectively. The bacterial suspensions were dispensed into flat-bottomed polystyrene 96-well microplates (Corning Costar, Lowell, MA, USA) in the presence of sub-MIC concentrations of Rhe and DIA (3.12, 6.25, and 12.5 μg/mL). A sample containing 0.8 DMSO % (corresponding to the highest concentration of DMSO tested) was used as a control. The microplates were incubated statically at 37 °C for 24 h, and the biofilm biomass was estimated by CV (Sigma-Aldrich) staining assay, as previously described.

P. aeruginosa ATCC 27853 [1] = assay: MIC determination (microdilution); assay type: cell-based, Pseudomonas aeruginosa
Method: (§2) A clinical isolate of S. aureus (W4) and the reference strain of P. aeruginosa ATCC 27853 were used in the study. For the preparation of stock cultures, bacterial strains were grown in Luria–Bertani broth (LB, Oxoid, Basingstoke, Hampshire, UK) until the late-log phase, subdivided into aliquots, and kept frozen at −80 °C until use. Identification and susceptibility testing of the S. aureus W4 strain were performed using MALDI-TOF (Bruker Daltonics, Bremen, Germany) and the BD Phoenix susceptibility testing system (BD, Milan, Italy), respectively.
(§3) The susceptibility of the bacterial strains to each of the tested compounds was assessed in terms of MIC values according to the standard microdilution method (Clinical and Laboratory Standards Institute–CLSI, 2018), with some modifications. Briefly, the bacteria were grown in LB broth until the exponential growth phase and then diluted in the same medium to reach a final density of 5 × 10^6 CFU/mL. A volume of 10 μL of the bacterial suspensions was added to 90 μL of LB in a 96-well plate in the absence (viability control) or presence of the test compound at different concentrations.

P. aeruginosa ATCC 27853 [2] = assay: Biofilm inhibition assay (crystal violet); assay type: cell-based, Pseudomonas aeruginosa; conditions: any of the concentrations tested (3.12, 6.25, 12.5 μg/mL)
Method: as §1

[3] = test system: BALB/3T3 clone A31 fibroblast cells; assay: Cytotoxicity screening (WST-1); assay type: cell-based, murine; conditions: Mus musculus, 4 h incubation, read-out: IC50 of cell viability
Method: BALB/3T3 clone A31 fibroblast cells were grown in Dulbecco’s Modified Eagle Medium (DMEM), supplemented with 2 mM L-glutamine, 1% penicillin/streptomycin, and 10% bovine calf serum. Cells were grown in a CO2 incubator (Heracell 150i series) at 37 °C and 5% CO2, with cells sub-cultured at 80–90% confluency. The cell monolayers were rinsed with PBS and treated with trypsin–EDTA to detach the cells before their resuspension in fresh media. A subconfluent monolayer of BALB/3T3 clone A31 fibroblast cells was trypsinised, centrifuged at 1000 rpm for 5 min, resuspended in growth medium, and counted.
A cytotoxicity screening was carried out for both ILs (range […]), as well as DIA and Rhe (0.5–200 mg/mL). Briefly, BALB/3T3 clone A31 fibroblast cells were seeded in each well of 96-well plates at a seeding density of 6 × 10^3 cells/well for 24 h, until 60–70% confluence was reached. After 24 h, the medium was then removed from each well and replaced with DMEM containing the samples.
After 4 h of incubation, the media were removed, replaced with fresh medium containing 10% WST-1 reagent solution, and maintained for 4 h at 37° C with 5% CO2. Afterwards, formazan dye absorbance was quantified at 450 nm with the reference wavelength at 655 nm by using a multilabel reader (BioTek 800/TS, Thermo Scientific).

[4] = Phase solubility study (apparent solubility of DIA and Rhe with ILs or HP-β-CD); assay type: physicochemical; conditions: 25 °C, aqueous with cosolvent or surfactant or cyclodextrin, thermodynamic from solid, read-out: saturation solubility
Method: The increase in the apparent solubility of both DIA and Rhe in the presence of the ILs was evaluated. Briefly, aqueous solutions of the ILs were prepared in the range of 0–200 mg/mL, and an excess of either DIA or Rhe was added to each vial. The samples were then incubated for 30 min at 25°C, and the undissolved drug was removed by centrifugation at […] for 15 min (Hettich Mikro 120 centrifuge). […] The drug concentration was measured by UV–Vis analysis. The DIA phase solubility study was also compared to the phase solubility study of DIA in the presence of HP-β-CD as a reference solubility/stability-enhancing excipient. […] The complexation K was calculated through Higuchi and Connors’ method, as previously reported.
The size distribution and zeta potential values of the ILs’ aggregates in aqueous solutions were evaluated by using a Zetasizer Nano ZS (Malvern) at 25 °C. The samples were prepared by adding an excess of either DIA or Rhe (5 mg/mL) to the aqueous IL solutions, incubating them for 30 min at 25 °C, and finally removing the excess drugs by centrifugation. […] In contrast, for PB solutions, the solutions were prepared in water, and […] of 100 mM pH 7 phosphate buffer was added per 1 mL of aqueous solution, directly in the cuvette, before the dynamic light scattering (DLS) analysis started. The concentrations of the solubilised drug were determined by UV–Vis analysis.

[5] = test system: S. aureus (clinical isolate W4); assay: MIC determination (microdilution); assay type: cell-based, Staphylococcus aureus
Method: as §2, §3

[6] = test system: murine fibroblast NIH 3T3 cells; set-up: method as in PMID 20302969, doi:10.1039/c0gc00813c; conditions: ref [29],[30]; cited from earlier work

| Compound | biofilm formation (CV staining, OD 570 nm) (S. aureus W4) | MIC (P. aeruginosa ATCC 27853 [1]; Pseudomonas aeruginosa, ATCC27853, planktonic cells, 24 h, 37 °C) [µg/mL] | antibacterial effect (P. aeruginosa ATCC 27853 [1]; in words (discussion)) | biofilm formation (CV staining, OD 570 nm), difference vs control (P. aeruginosa ATCC 27853 [2]) | IC50 [3] [µg/mL] | solubility at 30 min ([4]; in Bet6 solutions) [µg/mL] | solubility at 30 min ([4]; in Carn6 solutions) [µg/mL] | MIC ([5]; Staphylococcus aureus, planktonic cells, 24 h, 37 °C) [µg/mL] | antibacterial effect ([5]; in words (discussion)) | IC50 [6] [µg/mL] |
| --- | --- | --- | --- | --- | --- | --- | --- | --- | --- | --- |
| O=C(O)c1cc(O)c2c(c1)C(=O)c1cccc(O)c1C2=O [Rhe, rhein] | statistically significant reduction in biofilm formation | > 50 | inactive | not statistically significant | 6.7 (≈ 23.6 µM) | 220 (≈ 774 µM) | 130 (≈ 457 µM) | 50 (≈ 176 µM) | exert antibacterial effects |  |
| benzalkonium chloride [Bak] |  |  |  |  |  |  |  |  |  | 9.4 |
